Measured values published in patent US10908153B2, “Pseudomonas aeruginosa inhibitor compounds” (priority 2015, dated 2021).

Biological target: T1, PscE-PscG interaction (Pseudomonas aeruginosa, UniProt P95435+Q9I317)
T1 construct: made in house; host or cells: E. coli
Test: ELISA test of inhibition of the PscE-PscG interaction
Format: binding
Conditions: for inhibition at 50 µM: 4 h, read-out: PscE-PscG at 50 μM; for inhibitory effect compared with clioquinol: ELISA test, 50 μM, Table 2; for PscE-PscG at 50 μM: inhibition by new synthetic analogues at 50 μM, PscG 2.2 μM, PscE solution 3 μM
Method: 50 μL of PscG protein at 1 μM (for screening libraries) or 2.2 μM (for screening newly synthesized molecules) is incubated in a NUNC 96-well plate for 8 h at 4° C. The wells are washed three times with 200 μL of 1× PBS/0.1% Tween20®. The wells are treated overnight at 4° C. with 200 μL of a 5% milk solution in 1× PBS/0.1% Tween20®. The solution is then discarded, and the plate is drained dry.
The test is carried out as follows:
Negative control (lowest signal level): 100 μL of buffer ([…] Tris-HCl, 250 mM NaCl, pH 8.0);
Positive control (highest signal level): 50 μL of buffer and 50 μL of a test solution at 25 (library screening) or 3 μM (screening of analogue molecules) of the PscE protein;
Test of the inhibitors: 40 μL buffer, 50 μL of a solution at 25 μM (library screening) or 3 μM (screening of analogue molecules) of PscE protein and 10 μL of the solution containing the inhibitor to be tested.
The solutions are left for 4 h at room temperature.
The wells are washed three times with 200 μL of 1× PBS/0.1% Tween20®. The anti-PscE antibody diluted to 1:2,000 in 1× PBS/0.1% Tween20®, 50 μL, is added and the whole is left 2 h at room temperature. The wells are washed three times with 200 μL of 1× PBS/0.1% Tween20®. The HRP-conjugated anti-mouse antibody is diluted to 1:5,000 in 1× PBS/0.1% Tween20® and 50 μL is added and left for 2 h at room temperature. The wells are washed three times with 200 μL of 1× PBS/0.1% Tween20®.
The ELISA test is developed by adding 50 μL of TMB reagent followed by incubation for 15 minutes at room temperature in the dark. The reaction is stopped by adding 50 μL of 2N HCl. The plate is read at 450 nm.

T1 sequence (Q9I317 whole entry): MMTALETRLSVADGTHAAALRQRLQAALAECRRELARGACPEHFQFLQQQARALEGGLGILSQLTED
T1 sequence (P95435 whole entry): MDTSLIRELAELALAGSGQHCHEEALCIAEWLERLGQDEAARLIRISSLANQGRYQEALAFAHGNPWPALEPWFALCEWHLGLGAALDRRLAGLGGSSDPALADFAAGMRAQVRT

Compound | inhibition at 50 µM [%] | inhibitory effect compared with clioquinol | PscE-PscG at 50 μM
[N-]=[N+]=NCCCCCCCCCCCCOCCCc1ccc[n+](CCCCCCCCOCCCc2cccnc2)c1 [molecule 31, 3-(3-(12-azidododecyloxy)propyl)-1-(8-(3-(pyridin-3-yl)propoxy)octyl)pyridinium chloride] | 82.9 | superior to clioquinol | 
[N-]=[N+]=NCCCCCCCCCCCCOCCCc1ccc[n+](CCCCCCCCCCOCCCc2cccnc2)c1 [molecule 33, 3-(3-(12-azidododecyloxy)propyl)-1-(10-(3-(pyridin-3-yl)propoxy)decyl)pyridinium chloride] | 54.2 | superior to clioquinol | 
[N-]=[N+]=NCCCCCCCCCCCCOCCCc1ccc[n+](CCCCCCCCCCCCOCCCc2cccnc2)c1 [molecule 34, 3-(3-(12-azidododecyloxy)propyl)-1-(12-(3-(pyridin-3-yl)propoxy)dodecyl)pyridinium chloride] | 30.6 |  | 
CC(=O)Oc1c(-c2cn(CCCCOCCCc3ccc[n+](CCCCOCCCc4cccnc4)c3)nn2)cc(Cl)c2cccnc12 [molecule 35, 3-(3-(4-(4-(8-acetoxy-5-chloroquinolin-7-yl)-1H-1,2,3-triazol-1-yl)butoxy)propyl)-1-(4-(3-(pyridin-3-yl)propoxy)butyl)pyridinium chloride] | 29.8 |  | 
CC(=O)Oc1c(-c2cn(CCCCOCCCc3ccc[n+](CCCCCCOCCCc4cccnc4)c3)nn2)cc(Cl)c2cccnc12 [molecule 36, 3-(3-(4-(4-(8-acetoxy-5-chloroquinolin-7-yl)-1H-1,2,3-triazol-1-yl)butoxy)propyl)-1-(6-(3-(pyridin-3-yl)propoxy)hexyl)pyridinium chloride] | 54.2 | superior to clioquinol | 
CC(=O)Oc1c(-c2cn(CCCCCCOCCCc3ccc[n+](CCCCOCCCc4cccnc4)c3)nn2)cc(Cl)c2cccnc12 [molecule 37, 3-(3-(6-(4-(8-acetoxy-5-chloroquinolin-7-yl)-1H-1,2,3-triazol-1-yl)hexyloxy)propyl)-1-(4-(3-(pyridin-3-yl)propoxy)butyl)pyridinium chloride] | 92.5 | superior to clioquinol | 
CC(=O)Oc1c(-c2cn(CCCCOCCCc3ccc[n+](CCCCCCCCOCCCc4cccnc4)c3)nn2)cc(Cl)c2cccnc12 [molecule 38, 3-(3-(4-(4-(8-acetoxy-5-chloroquinolin-7-yl)-1H-1,2,3-triazol-1-yl)butoxy)propyl)-1-(8-(3-(pyridin-3-yl)propoxy)octyl)pyridinium chloride] | 27.3 |  | 
CC(=O)Oc1c(-c2cn(CCCCCCOCCCc3ccc[n+](CCCCCCOCCCc4cccnc4)c3)nn2)cc(Cl)c2cccnc12 [molecule 39, 3-(3-(6-(4-(8-acetoxy-5-chloroquinolin-7-yl)-1H-1,2,3-triazol-1-yl)hexyloxy)propyl)-1-(6-(3-(pyridin-3-yl)propoxy)hexyl)pyridinium chloride] | 97.3 | superior to clioquinol | 
CC(=O)Oc1c(-c2cn(CCCCCCOCCCc3ccc[n+](CCCCCCCCOCCCc4cccnc4)c3)nn2)cc(Cl)c2cccnc12 [molecule 40, 3-(3-(6-(4-(8-acetoxy-5-chloroquinolin-7-yl)-1H-1,2,3-triazol-1-yl)hexyloxy)propyl)-1-(8-(3-(pyridin-3-yl)propoxy)octyl)pyridinium chloride] | 87.2 | superior to clioquinol | 
CC(=O)Oc1c(-c2cn(CCCCCCCCOCCCc3ccc[n+](CCCCCCOCCCc4cccnc4)c3)nn2)cc(Cl)c2cccnc12 [molecule 41, 3-(3-(8-(4-(8-acetoxy-5-chloroquinolin-7-yl)-1H-1,2,3-triazol-1-yl)octyloxy)propyl)-1-(6-(3-(pyridin-3-yl)propoxy)hexyl)pyridinium chloride] | 69.1 | superior to clioquinol | 
CC(=O)Oc1c(-c2cn(CCCCCCCCCCOCCCc3ccc[n+](CCCCCCOCCCc4cccnc4)c3)nn2)cc(Cl)c2cccnc12 [molecule 42, 3-(3-(10-(4-(8-acetoxy-5-chloroquinolin-7-yl)-1H-1,2,3-triazol-1-yl)decyloxy)propyl)-1-(6-(3-(pyridin-3-yl)propoxy)hexyl)pyridinium chloride] |  |  | no inhibition
CC(=O)Oc1c(-c2cn(CCCCCCCCOCCCc3ccc[n+](CCCCCCCCOCCCc4cccnc4)c3)nn2)cc(Cl)c2cccnc12 [molecule 43, 3-(3-(8-(4-(8-acetoxy-5-chloroquinolin-7-yl)-1H-1,2,3-triazol-1-yl)octyloxy)propyl)-1-(8-(3-(pyridin-3-yl)propoxy)octyl)pyridinium chloride] | 29.5 |  | 
CC(=O)Oc1c(-c2cn(CCCCCCCCCCCCOCCCc3ccc[n+](CCCCOCCCc4cccnc4)c3)nn2)cc(Cl)c2cccnc12 [molecule 44, 3-(3-(12-(4-(8-acetoxy-5-chloroquinolin-7-yl)-1H-1,2,3-triazol-1-yl)dodecyloxy)propyl)-1-(4-(3-(pyridin-3-yl)propoxy)butyl)pyridinium chloride] | 33.4 |  | 
CC(=O)Oc1c(-c2cn(CCCCCCOCCCc3ccc[n+](CCCCCCCCCCOCCCc4cccnc4)c3)nn2)cc(Cl)c2cccnc12 [molecule 45, 3-(3-(6-(4-(8-acetoxy-5-chloroquinolin-7-yl)-1H-1,2,3-triazol-1-yl)hexyloxy)propyl)-1-(10-(3-(pyridin-3-yl)propoxy)decyl)pyridinium chloride] | 71.6 | superior to clioquinol | 
CC(=O)Oc1c(-c2cn(CCCCCCOCCCc3ccc[n+](CCCCCCCCCCCCOCCCc4cccnc4)c3)nn2)cc(Cl)c2cccnc12 [molecule 46, 3-(3-(6-(4-(8-acetoxy-5-chloroquinolin-7-yl)-1H-1,2,3-triazol-1-yl)hexyloxy)propyl)-1-(12-(3-(pyridin-3-yl)propoxy)dodecyl)pyridinium chloride] |  |  | no inhibition
CC(=O)Oc1c(-c2cn(CCCCCCCCOCCCc3ccc[n+](CCCCCCCCCCOCCCc4cccnc4)c3)nn2)cc(Cl)c2cccnc12 [molecule 47, 3-(3-(8-(4-(8-acetoxy-5-chloroquinolin-7-yl)-1H-1,2,3-triazol-1-yl)octyloxy)propyl)-1-(10-(3-(pyridin-3-yl)propoxy)decyl)pyridinium chloride] |  |  | no inhibition
CC(=O)Oc1c(-c2cn(CCCCCCCCCCOCCCc3ccc[n+](CCCCCCCCCCOCCCc4cccnc4)c3)nn2)cc(Cl)c2cccnc12 [molecule 48, 3-(3-(10-(4-(8-acetoxy-5-chloroquinolin-7-yl)-1H-1,2,3-triazol-1-yl)decyloxy)propyl)-1-(10-(3-(pyridin-3-yl)propoxy)decyl)pyridinium chloride] | 72.3 | superior to clioquinol | 
CC(=O)Oc1c(-c2cn(CCCCCCCCCCCCOCCCc3ccc[n+](CCCCCCCCOCCCc4cccnc4)c3)nn2)cc(Cl)c2cccnc12 [molecule 49, 3-(3-(12-(4-(8-acetoxy-5-chloroquinolin-7-yl)-1H-1,2,3-triazol-1-yl)dodecyloxy)propyl)-1-(8-(3-(pyridin-3-yl)propoxy)octyl)pyridinium chloride] | 69.8 | superior to clioquinol | 
